{"source": "patent US6569843B1", "about": "“Steroidal sapogenins for the control of coccidiosis in animals” (priority 1999, dated 2003)", "format_in_all_cases": "in vivo", "key": {"E. maxima [1]": {"test_system": "E. maxima", "assay": "8 day coccidial challenge study, middle lesion score (Example 4)", "details": "day 8"}, "E. acervulina [2]": {"test_system": "E. acervulina", "assay": "8 day coccidial challenge study, upper lesion score (Example 4)", "details": "day 8"}, "E. tenella [3]": {"test_system": "E. tenella", "assay": "8 day coccidial challenge study, cecal lesion score (Example 4)", "details": "day 8"}, "[4]": {"test_system": "mixture of E. acervulina, E. maxima and E. tenella", "assay": "8 day coccidial challenge study in broiler chicks, mortality, weight gain, feed efficiency (Example 4)"}, "E. tenella [5]": {"test_system": "E. tenella", "assay": "13 day coccidial challenge study, cecal lesion score (Example 3)", "details": "day 13", "source_text": "(§1) Birds were fed a standard corn soybean meal diet and water ad libitum. Birds were placed in 4 foot by 5 foot pens at the rate of 50 birds per pen. On day 6 all birds, except the negative control, were orally challenged with an inoculum comprised of a mixture of E. acervulina, E. maxima and E. tenella. Since each of these three specie of Eimeria produce intestinal lesions in distinctly different regions of the intestinal their effects can be partitioned when scoring the birds. On day 13 all birds were sacrificed by cervical dislocation and the intestines scored for coccidial lesions by the standard Johnson and Reid method."}, "E. maxima [6]": {"test_system": "E. maxima", "assay": "13 day coccidial challenge study, middle intestinal lesion score (Example 3)", "details": "day 13", "source_text": "as §1"}, "[7]": {"test_system": "mixture of E. acervulina, E. maxima and E. tenella", "assay": "13 day coccidial challenge study in broiler chicks, weight and feed conversion (Example 3)", "source_text": "as §1"}, "E. acervulina [8]": {"test_system": "E. acervulina", "assay": "13 day coccidial challenge study, upper intestinal lesion score (Example 3)", "details": "day 13", "source_text": "as §1"}, "[9]": {"test_system": "mixed culture of E. acervulina, E. maxima and E. tenella", "assay": "14 day coccidial challenge study, steroidal sapogenin and antibiotic compatibility in chicks (Example 5)", "details": "SS at 3.3 ppm where included, antibiotic doses not given; for Lesion Scores, Cecal / Lesion Scores, Middle / Lesion Scores, Upper: day 14"}}, "note": "Where “and” joins values, the source holds several entries; their conditions need not be identical. Equal values may be shown once."}
{"molecule": "CO[C@@H]1[C@@H](OC)[C@H](C)[C@@](O)(CC(=O)O)O[C@H]1[C@H](C)[C@H]1O[C@@]2(CC[C@@](C)([C@H]3CC[C@@](C)([C@@H]4O[C@@H]([C@H]5O[C@](C)(O)[C@H](C)C[C@@H]5C)C[C@@H]4O[C@@H]4C[C@H](OC)[C@@H](OC)[C@H](C)O4)O3)O2)C[C@H](O)[C@H]1C", "note": "[Maduramicin]", "values": [{"measurement": "Lesion Scores, Middle, E. maxima", "setting": "E. maxima [1]; 5 ppm, two different sources", "value": "2.2667 b and 2.3000 b"}, {"measurement": "Lesion Scores, Upper, E. acervulina", "setting": "E. acervulina [2]; 5 ppm, two different sources", "value": "2.1000 b and 2.3667 b"}, {"measurement": "Lesion Scores, Cecal, E. tenella", "setting": "E. tenella [3]; 5 ppm, two different sources", "value": "2.6000 bc and 2.3333 bc"}, {"measurement": "Feed/Gain", "setting": "[4]; 5 ppm, two different sources", "value": "1.8503 cd and 1.8463 cd"}, {"measurement": "Mortality, %", "setting": "[4]; 5 ppm, two different sources", "value": "6.67 a % and 0 a %"}, {"measurement": "Weight Gain, gm", "setting": "[4]; 5 ppm, two different sources", "value": "266.67 d gm and 269.33 d gm"}]}
{"molecule": "CC[C@@]1([C@@H]2O[C@@H]([C@H]3O[C@@](O)(CO)[C@H](C)C[C@@H]3C)C[C@@H]2C)CC[C@H]([C@]2(C)CC[C@]3(C[C@H](O)[C@@H](C)[C@@H]([C@@H](C)[C@@H](OC)[C@H](C)C(=O)O)O3)O2)O1", "note": "[Monensin]", "values": [{"measurement": "Lesion Scores, Middle, E. maxima", "setting": "E. maxima [1]; 90 gm/ton", "value": 2.4333, "unit": "bc"}, {"measurement": "Lesion Scores, Upper, E. acervulina", "setting": "E. acervulina [2]; 90 gm/ton", "value": 1.9667, "unit": "b"}, {"measurement": "Average intestinal lesion score, Cecal, tenella", "setting": "E. tenella [5]; 100 g/ton", "value": 1.64}, {"measurement": "Lesion Scores, Cecal, E. tenella", "setting": "E. tenella [3]; 90 gm/ton", "value": 2.9667, "unit": "bc"}, {"measurement": "Feed/Gain", "setting": "[4]; 90 gm/ton", "value": 1.9033, "unit": "cd"}, {"measurement": "Mortality, %", "setting": "[4]; 90 gm/ton", "value": 3.33, "unit": "a %"}, {"measurement": "Weight Gain, gm", "setting": "[4]; 90 gm/ton", "value": 258.67, "unit": "d gm"}, {"measurement": "Average intestinal lesion score, Middle, maxima", "setting": "E. maxima [6]; 100 g/ton", "value": 1.58}, {"measurement": "Feed/Gain", "setting": "[7]; 100 g/ton", "value": 1.843}, {"measurement": "Weight, gm (average bird weight)", "setting": "[7]; 100 g/ton", "value": 233.0, "unit": "gm"}, {"measurement": "Average intestinal lesion score, Upper, acervulina", "setting": "E. acervulina [8]; 100 g/ton", "value": 1.40}]}
{"molecule": "CC[C@@H](C(=O)[C@@H](C)[C@@H](O)[C@H](C)[C@@H]1O[C@@H]([C@@H](CC)C(=O)O)CC[C@@H]1C)[C@H]1O[C@]2(C=C[C@@H](O)[C@]3(CC[C@@](C)([C@H]4CC[C@](O)(CC)[C@H](C)O4)O3)O2)[C@H](C)C[C@@H]1C", "note": "[Salinomycin]", "values": [{"measurement": "Lesion Scores, Middle, E. maxima", "setting": "E. maxima [1]; 60 gm/ton", "value": 2.9000, "unit": "bc"}, {"measurement": "Lesion Scores, Upper, E. acervulina", "setting": "E. acervulina [2]; 60 gm/ton", "value": 2.1333, "unit": "b"}, {"measurement": "Average intestinal lesion score, Cecal, tenella", "setting": "E. tenella [5]; 60 g/ton", "value": 0.68}, {"measurement": "Lesion Scores, Cecal, E. tenella", "setting": "E. tenella [3]; 60 gm/ton", "value": 2.9000, "unit": "bc"}, {"measurement": "Feed/Gain", "setting": "[4]; 60 gm/ton", "value": 1.8473, "unit": "cd"}, {"measurement": "Mortality, %", "setting": "[4]; 60 gm/ton", "value": 6.67, "unit": "a %"}, {"measurement": "Weight Gain, gm", "setting": "[4]; 60 gm/ton", "value": 269.67, "unit": "d gm"}, {"measurement": "Average intestinal lesion score, Middle, maxima", "setting": "E. maxima [6]; 60 g/ton", "value": 1.22}, {"measurement": "Feed/Gain", "setting": "[7]; 60 g/ton", "value": 1.624}, {"measurement": "Weight, gm (average bird weight)", "setting": "[7]; 60 g/ton", "value": 246.3, "unit": "gm"}, {"measurement": "Average intestinal lesion score, Upper, acervulina", "setting": "E. acervulina [8]; 60 g/ton", "value": 0.76}]}
{"molecule": "Bacitracin Zinc", "values": [{"measurement": "Feed/Gain", "setting": "[9]", "value": 1.833}, {"measurement": "Weight, gm", "setting": "[9]", "value": 259.7, "unit": "gm"}, {"measurement": "Lesion Scores, Cecal", "setting": "[9]", "value": 1.50}, {"measurement": "Lesion Scores, Middle", "setting": "[9]", "value": 2.08}, {"measurement": "Lesion Scores, Upper", "setting": "[9]", "value": 1.50}]}
{"molecule": "Virginiamycin", "values": [{"measurement": "Feed/Gain", "setting": "[9]", "value": 1.891}, {"measurement": "Weight, gm", "setting": "[9]", "value": 256.3, "unit": "gm"}, {"measurement": "Lesion Scores, Cecal", "setting": "[9]", "value": 1.17}, {"measurement": "Lesion Scores, Middle", "setting": "[9]", "value": 1.58}, {"measurement": "Lesion Scores, Upper", "setting": "[9]", "value": 1.17}]}
